This passage reports IC50, EC50 and inhibition results from ChEMBL document CHEMBL6074694, “4-Oxo-β-lactams as Covalent Inhibitors of the Mitochondrial Intramembrane Protease PARL” (ACS Med Chem Lett, 2024).

Activity calls are given as the source filed them. The rule behind the calls is not given here.

For assay [1], the target named is T1, Presenilin-associated rhomboid-like protein, mitochondrial (Homo sapiens, UniProt Q9H300).
T1 sequence (Q9H300 whole entry): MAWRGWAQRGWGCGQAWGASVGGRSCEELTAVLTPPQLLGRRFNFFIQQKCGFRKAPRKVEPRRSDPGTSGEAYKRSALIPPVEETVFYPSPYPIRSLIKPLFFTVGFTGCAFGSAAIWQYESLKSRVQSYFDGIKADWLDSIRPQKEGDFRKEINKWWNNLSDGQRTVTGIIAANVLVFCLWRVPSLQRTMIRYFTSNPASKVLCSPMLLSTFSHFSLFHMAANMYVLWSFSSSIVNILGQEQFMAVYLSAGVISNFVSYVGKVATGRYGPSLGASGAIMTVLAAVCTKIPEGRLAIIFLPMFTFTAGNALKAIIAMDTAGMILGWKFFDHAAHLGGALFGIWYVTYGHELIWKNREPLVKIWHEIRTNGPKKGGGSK
The assay can be described thus: Inhibition of PARL (unknown origin) using Ac-RRRAVFKLA-aminomethyl coumarin as substrate preincubated for 30 mins followed by substrate addition and measured after 20 mins by plate reader assay.

A short description of assay [2]: Inhibition of recombinant human RHBDL2 using Ac-PVAKA-7-amino-4-methylcoumarin-3-(N-octyl)-acetamide as substrate preincubated for 30 mins followed by substrate addition and measured after 20 mins by plate reader assay.
A short description of assay [3]: (§1) Inhibition of FLAG-tagged PARL (unknown origin) overexpressed in HEK293-T-REx cells assessed as reduction in substrate cleavage using PGAM5-Myc as substrate incubated for overnight by densitometry assay. In kind it is cell-based, Homo sapiens.
In another assay the test system is HEK293-T-REx. Described as §1. In kind it is cell-based. Particulars: Homo sapiens.

As usually defined, the IC50 is the concentration that inhibits the measured activity by half. In the case of `CCC1(CC)C(=O)N(c2cccc(CN3CCN(c4ccc(Br)cc4)CC3)c2)C1=O`, the IC50 in assay [1] came out at 890 nM.

Regarding `CCC1(CC)C(=O)N(c2ccc(CN3CCN(c4ccc(Br)cc4)CC3)cc2)C1=O`, the half-inhibitory concentration (IC50) in assay [1] stood at 490 nM; in assay [2] it was 21000 nM. Regarding `CCC1(CC)C(=O)N(c2ccc(CN3CCc4cc5c(cc4C3)OCO5)cc2)C1=O`, in assay [1], the concentration for half-maximal inhibition (IC50) was 560 nM.

`CCC1(CC)C(=O)N(c2ccc(CN3CCN(c4ccc(OC)cc4)CC3)cc2)C1=O`: the half-inhibitory concentration (IC50) in assay [1] came out at 380 nM.

The term EC50 denotes the concentration that produces a half-maximal response. Take `CCC1(CC)C(=O)N(c2ccc(CN(Cc3ccccc3)Cc3ccccc3)cc2)C1=O`: in assay [1], inhibition was half-maximal at 150 nM (IC50). In addition, the EC50 in assay [3] was found to be 300 nM. With `CCC1(CC)C(=O)N(c2ccc(CN3CCN(c4ccnc5ccc(Br)cc45)CC3)cc2)C1=O`, the IC50 in assay [1] amounted to 260 nM; in assay [2], 35000 nM. Take `CCC1(CC)C(=O)N(c2ccc(CN3CCN(C(c4ccc(F)cc4)c4ccc(F)cc4)CC3)cc2)C1=O`: the IC50 in assay [1] amounted to 2600 nM.

`CCC1(CC)C(=O)N(c2ccc(CN3CCN(Cc4ccc(Br)cc4)CC3)cc2)C1=O`: the half-maximal inhibitory concentration (IC50) is 1430 nM in assay [1] and 1900 nM in assay [2].

`CCC1(CC)C(=O)N(c2ccc(CN3CCN(c4cc(C)nc5ccc(Br)cc45)CC3)cc2)C1=O` came in with a 50% inhibitory concentration (IC50) in assay [1] of 480 nM. For `CCC1(CC)C(=O)N(c2cccc(CN3CCN(Cc4ccc(OC)cc4)CC3)c2)C1=O`, the IC50 in assay [1] amounted to 1930 nM. `CCC1(CC)C(=O)N(Cc2ccc(C(=O)OCc3ccccc3)cc2)C1=O`: in assay [1], the IC50 amounted to 160 nM. In assay [3], the EC50 worked out at 220 nM. Take `CCC1(Cc2ccccc2)C(=O)N(OS(=O)(=O)c2ccc(C)cc2)C1=O`: the inhibition entry with HEK293-T-REx was “inactive”. In turn, `CCC1(CC)C(=O)N(c2cccc(CN3CCN(Cc4ccc(Br)cc4)CC3)c2)C1=O` registered an IC50 in assay [1] of 1000 nM.
